Data reported in the NIST ThermoML archive (doi:10.1016/j.fluid.2011.02.008).
Several values for one entry are separate records, joined by “and”; a condition that tells them apart may be missing. Identical values can stand only once. Numbers after ± are expanded uncertainties.

Conditions: Liquid, Closed cell (Static) method

In the case of `O=S=O` [sulfur dioxide], the “vapor or sublimation pressure” value (343.15 K) is reported as 1479 ± 5 kPa and 1469 ± 24 kPa, the “vapor or sublimation pressure” value (373.15 K) is reported as 2883 ± 9 kPa and the “vapor or sublimation pressure” value (413.15 K) is reported as 5836 ± 18 kPa and 5978 ± 32 kPa.
